In article PMC11009276, “Design, synthesis, biological assessment and molecular modeling studies of novel imidazothiazole-thiazolidinone hybrids as potential anticancer and anti-inflammatory agents” (Scientific Reports, 2024):
Like-named read-outs stand apart in the source and are kept apart here.

How the values were obtained:
[1] = test system: A549 (Lung) cancer cell line; assay: MTT cytotoxicity assay, A549; details: Homo sapiens, A549, 72 h, read-out: IC50 (µM) (Mean ± SD) A549
Protocol: (§1) All the synthesized imidazothiazole derivatives linked with thiazolidinone moiety (4a-g and 5a-d, Fig. 4) were evaluated for their in- vitro anticancer activities against three selected human cancer cell lines namely non-small lung (A549), breast (MCF7) and colorectal (HCT116) and one normal human embryonic kidney cell line (HEK293) using the 3‐(4,5‐Dimethylthiazol‐2‐yl)-2,5‐Diphenyltetrazolium Bromide (MTT) assay method. […] Compounds were tested against selected cancer cell lines namely A549 (Lung), MCF-7(Breast) HCT116 (Colon), normal human embryonic kidney cell line (HEK293) and procured from National Centre for Cell Science Complex (NCCS) Pune University, India. Into a 96 well plate, cells were seeded into each well (3 × 10^3 cells/ per well), the plate were incubated for 24 h, after that the culture medium was discarded and replaced with fresh medium along with our newly synthesized test compounds in different concentration (10, 20, 40 and 80 µM) followed by incubation for 72 h. […] Finally, each well is treated with DMSO (100 µL) and swirled to dissolve the dark crystals of formazan. ELISA reader was used to measure the absorbance at 570 nm. The experiment was repeated three times; Graph pad prism and excel are used to calculate the IC50 values[51].

[2] = test system: MCF7 human breast cancer cell line; assay: MTT cytotoxicity assay, MCF7; details: MCF7, 72 h, read-out: IC50 (µM) (Mean ± SD) MCF7
Protocol: as §1

[3] = biological target: Bovine serum albumin (BSA) (Bos taurus, UniProt P02769); assay: BSA (protein albumin) denaturation inhibition assay; details: for BSA denaturation inhibition assay Mean absorbance ± SEM: 660 nm; for inhibition at 100 µg/mL: read-out: BSA denaturation inhibition assay % inhibition of denaturation, 100 μg/mL
Sequence of Bovine serum albumin (BSA) (P02769 25-607): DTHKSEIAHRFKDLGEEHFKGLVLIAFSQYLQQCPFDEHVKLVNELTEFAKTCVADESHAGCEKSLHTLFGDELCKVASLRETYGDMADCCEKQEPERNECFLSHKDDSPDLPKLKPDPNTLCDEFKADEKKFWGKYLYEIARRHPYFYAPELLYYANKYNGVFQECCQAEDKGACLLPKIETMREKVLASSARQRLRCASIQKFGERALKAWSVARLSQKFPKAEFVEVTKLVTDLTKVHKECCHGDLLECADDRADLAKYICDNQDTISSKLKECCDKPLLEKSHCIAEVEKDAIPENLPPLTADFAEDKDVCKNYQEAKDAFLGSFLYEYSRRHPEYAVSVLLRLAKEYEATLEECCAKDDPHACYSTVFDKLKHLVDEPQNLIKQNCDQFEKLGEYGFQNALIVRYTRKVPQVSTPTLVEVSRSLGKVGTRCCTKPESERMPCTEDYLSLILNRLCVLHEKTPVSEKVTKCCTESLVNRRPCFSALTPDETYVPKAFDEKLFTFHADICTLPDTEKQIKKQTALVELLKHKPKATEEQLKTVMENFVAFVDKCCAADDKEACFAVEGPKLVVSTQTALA
Protocol: All the synthesized compounds were evaluated for anti-inflammatory activity by the inhibition of the albumin denaturation technique. […] All the test solutions (1 mL, 100 μg/mL) were then mixed with 1 mL of albumin solution (1%) and phosphate buffer saline and then incubated for around 15 min at 27 ± 1 °C. Further, the denaturation of protein was induced by keeping the reaction mixture on the water bath for 10 min and maintaining the temperature at 60 °C. Once the solution gets cooled, the turbidity was measured using UV–Visible spectrophotometer at 660 nm.

[4] = test system: HEK293 human embryonic kidney cell line; assay: MTT cytotoxicity assay, normal cell line HEK293; type: cell-based; details: read-out: IC50 (Mean ± SD) HEK293
Protocol: All the synthesized imidazothiazole derivatives linked with thiazolidinone moiety (4a-g and 5a-d, Fig. 4) were evaluated for their in- vitro anticancer activities against three selected human cancer cell lines namely non-small lung (A549), breast (MCF7) and colorectal (HCT116) and one normal human embryonic kidney cell line (HEK293) using the 3‐(4,5‐Dimethylthiazol‐2‐yl)-2,5‐Diphenyltetrazolium Bromide (MTT) assay method. […]. […].
Cytotoxicity study of the newly synthesized derivatives 4a-g and 5a-d was performed by MTT colorimetric assay method. […] Compounds were tested against selected cancer cell lines namely A549 (Lung), MCF-7(Breast) HCT116 (Colon), normal human embryonic kidney cell line (HEK293) and procured from National Centre for Cell Science Complex (NCCS) Pune University, India. Into a 96 well plate, cells were seeded into each well (3 × 10^3 cells/ per well), the plate were incubated for 24 h, after that the culture medium was discarded and replaced with fresh medium along with our newly synthesized test compounds in different concentration (10, 20, 40 and 80 µM) followed by incubation for 72 h. Further, the media of each well of the plates were aspirated with the addition of 100 µL MTT solution followed by incubation for the next 5 h at 37 °C. Finally, each well is treated with DMSO (100 µL) and swirled to dissolve the dark crystals of formazan. ELISA reader was used to measure the absorbance at 570 nm. The experiment was repeated three times; Graph pad prism and excel are used to calculate the IC50 values.

EGFR kinase = EGFR kinase (Homo sapiens, UniProt P00533); assay: In vitro EGFR kinase inhibitory assay (ELISA, phospho-EGFR in A549 cell lysates)
Sequence of EGFR kinase (P00533 25-1210): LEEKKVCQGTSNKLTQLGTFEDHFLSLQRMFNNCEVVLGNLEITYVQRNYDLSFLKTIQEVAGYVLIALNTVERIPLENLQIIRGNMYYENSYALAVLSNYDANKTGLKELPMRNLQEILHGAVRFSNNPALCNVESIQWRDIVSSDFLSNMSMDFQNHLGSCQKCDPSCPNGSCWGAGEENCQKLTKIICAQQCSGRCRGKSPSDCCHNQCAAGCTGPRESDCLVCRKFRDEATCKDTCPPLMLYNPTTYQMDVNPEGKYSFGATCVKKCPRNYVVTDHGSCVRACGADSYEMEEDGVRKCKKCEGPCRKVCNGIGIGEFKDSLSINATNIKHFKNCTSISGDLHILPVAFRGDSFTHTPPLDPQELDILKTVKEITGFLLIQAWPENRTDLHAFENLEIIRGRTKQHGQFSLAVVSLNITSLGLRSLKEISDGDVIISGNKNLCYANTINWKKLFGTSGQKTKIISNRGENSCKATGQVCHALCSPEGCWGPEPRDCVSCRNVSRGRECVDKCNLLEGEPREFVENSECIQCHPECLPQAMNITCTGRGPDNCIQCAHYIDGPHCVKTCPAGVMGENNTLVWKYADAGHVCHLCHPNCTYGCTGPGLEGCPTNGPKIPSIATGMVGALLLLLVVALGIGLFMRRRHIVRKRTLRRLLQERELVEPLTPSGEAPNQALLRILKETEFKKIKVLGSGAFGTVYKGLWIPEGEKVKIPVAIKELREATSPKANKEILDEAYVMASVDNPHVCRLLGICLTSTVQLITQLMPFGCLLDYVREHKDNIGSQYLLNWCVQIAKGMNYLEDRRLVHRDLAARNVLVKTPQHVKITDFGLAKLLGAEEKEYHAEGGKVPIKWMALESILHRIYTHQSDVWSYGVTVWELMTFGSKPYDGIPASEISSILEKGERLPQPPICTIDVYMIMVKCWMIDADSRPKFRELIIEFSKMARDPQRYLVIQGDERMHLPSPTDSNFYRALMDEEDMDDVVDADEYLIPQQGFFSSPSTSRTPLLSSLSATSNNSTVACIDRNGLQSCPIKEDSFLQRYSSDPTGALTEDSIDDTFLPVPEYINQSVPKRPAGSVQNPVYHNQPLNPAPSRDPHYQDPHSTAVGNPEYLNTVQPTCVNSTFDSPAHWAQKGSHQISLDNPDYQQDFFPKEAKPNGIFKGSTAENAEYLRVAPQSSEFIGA
Protocol: For all the synthesized compounds, the overall methodology of a spectrophotometric assay for the inhibition of EGFR tyrosine kinase activity was evaluated in human A549 cells, which expressed high levels of EGFR protein. […] Cells were then washed with cold PBS, lysed in 0.2 ml/well of HNTG buffer (50 mM HEPES [(4‐(2‐hydroxyethyl)‐piperazineethanesulfonic acid; pH 7.5], 150 mM NaCl, 1.5 mM MgCl, 10% glycerol, 1% Triton X‐100, 0.5 mM sodium fluoride, 2 g/ml aprotinin, 2 g/ml pepstatin A, 1 mM sodium orthovanadate, 2 g/ml leupeptin, 1 mM phenyl methyl sulfonyl fluoride) for 10 min, and the lysates were collected as the supernatant fraction after a 12‐min centrifugation at 15,000 g. The specific EGFR concentration was measured by ELISA assay. Briefly, the wells of ELISA plates were coated with supernatant fraction and incubated at 4 °C overnight After washing three times with buffer (20 mM PBS, pH 7.2 containing 0.05% Tween‐20), the wells were blocked with 1% BSA for 2–3 h at room temperature. Further, the plate was washed and then mouse serum at 1,000‐fold dilution was added, followed by washing and incubation with phospho‐EGFR antibody (Invitrogen) at 4 °C overnight. The wells were washed and incubated with substrate solution (o‐phenylenediamine dihydrochloride), for 30 min, and the absorbance read on an ELISA plate reader at 490 nm[52]. %Inhibition=mean OD of untreated group-mean OD of treated group/mean OD of untreated group)×100.

[5] = test system: HCT116 human colorectal cancer cell line; assay: MTT cytotoxicity assay, HCT116; details: HCT-116, 72 h, read-out: IC50 (µM) (Mean ± SD) HCT116
Protocol: as §1

[6] = test system: carrageenan-induced rat hind paw edema; assay: Carrageenan-induced rat paw edema inhibition assay; type: in vivo; details: after 4 h; for % inhibition (paw edema) / Increase in Paw volume SEM: oral 0.0314 mmol/kg; for Increase in Paw volume SEM: n = 6; for Activity relative to standard drug: relative to diclofenac sodium
Protocol: The anti-inflammatory efficacy of the newly synthesised compounds was assessed using a carrageenan-induced rat hind paw edema technique The animals were divided into groups of six at random, fasted for 24 h before to the experiment, and given free access to water. 0.5% CMC solution was given to the control group only. […] One hour after the administration of the test compounds and the reference drug, 0.1 mL of a 1% carrageenan solution in saline was subcutaneously injected into the subplantar area of the right hind paw of each rat. The right hind paw volume was measured using a Digital Plethysmometer PLM-01 Plus (Orchid Scientifics and Innovatives India Pvt. Ltd., Mumbai, India) at 3 and 4 h after carrageenan therapy. The following calculation was used to compute the percent edema inhibition from the mean effect in the treated and control animals: Percent edema inhibition=Vc-Vt/Vc×100 where Vc denotes the mean increase in paw volume in the control group of rats and Vt denotes the mean increase in paw volume in rats treated with test chemicals. After a 15-day washout period, the same group of rats utilised for the anti-inflammatory activity were employed for the ulcerogenic activity.

gastric mucosa of rats = assay: Ulcerogenic activity; type: in vivo, rat; details: oral 0.0942 mmol/kg
Protocol: The Compounds (4a-d, 5a-b) which were found potent as anti-inflammatory agents were further screened for their ulcerogenic risk. The compounds and the standard drug were tested at an oral dose of 0.0942 mmol/kg.
Animals were divided into different groups consisting of 6 rats per group. […] The control group received 0.5% of the carboxymethylcellulose (CMC) solution. […] 24 h before the test compounds were administered. After receiving the medication, the rats were given regular food for 17 h and then sacrificed. The stomach was taken out and opened along its greater curvature before being gently cleansed by dipping it in normal saline and then washing it with distilled water. The mucosal injury/damage was examined thoroughly using a magnifying glass. The mucosal injury in each stomach was scored using the following score system: 0.5: Redness; 1.0: Spot Ulcers; 1.5: Hemorrhagic Streaks; 2.0: Ulcers > 3 but 5, 3.0: Ulcers > 5. The severity index (SI) of stomach mucosal injury was calculated as the mean score of each treated group minus the mean score of the control group.

[7] = test system: gastric mucosa tissue of rats; assay: Lipid peroxidation in gastric mucosa; type: in vivo, rat; details: oral 0.0942 mmol/kg
Protocol: The compounds screened for ulcerogenic potential were also analysed for lipid peroxidation. Lipid peroxidation is measured as nmolMDA/100 mg of gastric mucosa tissue. […] Thus, it was concluded that protection of gastric mucosa might be related to the inhibition of lipid peroxidation.
Lipid peroxidation in the gastric mucosa was determined using the reported method by Ohkawa H. et al.[61]. The gastric mucosa of the glandular area was scraped off using glass slides after the stomach had been examined for ulcers. Gastric mucosa was weighed (100 mg) and homogenised in 1.8 cm^3 of ice-cold solution of KCl (1.15%). The homogenate is further added with 0.2 cm^3 of 8.1% sodium dodecyl sulphate (SDS), 1.5 cm^3 of acetate buffer, and 1.5 cm^3 of 0.8% thiobarbituric acid. After adding all buffers, the mixture was kept for incubation for 60 min over water bath, maintaining the temperature of the water bath at 95 °C. Later, the mixture was allowed to cool and then extracted with a freshly prepared mixture of n-butanol and pyridine (15:1 v/v), the organic layer obtained was centrifuged at 3000 rpm for about 10 min. The organic layer was separated out and visualised on UV–visible spectrophotometer. Concentration was measured using the following formula: Concentration=Absorbance×volume×109÷1.56×10^5×1000
Results obtained were expressed as nmol MDA/100 mg tissue and extinction coefficient (1.56 × 10^5) cm^-1 M^-1.

[8] = test system: carrageenan-induced paw edema inflammation; set-up: method as in earlier work; details: albino rats; ref 50 (Saliyeva et al.); cited from earlier work
[9] = HEK293, MTT, 72 h, normal cell line

| Structure (SMILES) | IC50 [1] [µM] | IC50 [2] [µM] | BSA denaturation inhibition assay Mean absorbance ± SEM ([3]; 100 μg/mL) | inhibition at 100 µg/mL [3] [%] | melting point [°C] | IC50 [4, 9] [µM] | IC50 (EGFR kinase) [µM] | IC50 [5] [µM] | IC50 ([4]; HEK293, 72 h) [µM] | % inhibition (paw edema) [6] [%] | Increase in Paw volume SEM [6] | Activity relative to standard drug [6] | Mean ulcer severity index ± SEM (gastric mucosa of rats) | Lipid peroxidation [7] [Nmol MDA/100 mg tissue] | % inhibition carrageenan-induced paw edema [8] [%] | BSA denaturation inhibition assay % inhibition of denaturation ([3]; 100 μg/mL) [%] |
| --- | --- | --- | --- | --- | --- | --- | --- | --- | --- | --- | --- | --- | --- | --- | --- | --- |
| CC1SC(c2c(-c3ccccc3)nc3sccn23)N(c2ccc([N+](=O)[O-])cc2)C1=O (stereo not shown) [Compound 4e, 5-Methyl-3-(4-nitrophenyl)-2-(6-phenylimidazo[2,1-b]thiazol-5-yl) thiazolidin-4-one] | 50.6 ± 0.7 | 43.6 ± 7.19 | 0.289 ± 0.012 | 61.1 | 187 to 189 | 125 ± 5.8 | 57.1 ± 0.38 | 89.9 ± 4.89 |  |  |  |  |  |  |  |  |
| C#Cc1cccc(Nc2ncnc3cc(OCCOC)c(OCCOC)cc23)c1 [Erlotinib, reference compound] | 8.34 ± 8.09 | 10.7 ± 5.65 |  |  |  |  |  | 12.5 ± 1.87 | 80.2 ± 1.3 |  |  |  |  |  |  |  |
| COc1ccc(N2C(=O)CSC2c2c(-c3ccccc3)nc3sccn23)cc1 (stereo not shown) [Compound 5d, 3-(4-Methoxyphenyl)-2-(6-phenylimidazo[2,1-b]thiazol-5-yl) thiazolidin-4-one] | 33.1 | 38.1 ± 0.89 | 0.287 ± 0.004 | 59.9 | 160 to 162 | 111.8 ± 0.25 | 48 ± 1.97 | 65.2 ± 0.9 |  |  |  |  |  |  |  |  |
| O=C1CSC(c2c(-c3ccccc3)nc3sccn23)N1c1ccc(Br)cc1 (stereo not shown) [Compound 5b, 3-(4-Bromophenyl)-2-(6-phenylimidazo[2,1-b]thiazol-5-yl) thiazolidin-4-one] | 35.5 ± 2.15 | 44.2 ± 0.85 | 0.317 ± 0.003 | 76.6 | 159 to 161 | 105 ± 3.5 | 33.1 ± 1.58 | 58.6 ± 4.51 |  | 74.78 | 0.133 ± 0.008 | 93.10 | 1.000 ± 0.258 | 5.68 ± 0.071 |  |  |
| Cc1ccc(N2C(=O)C(C)SC2c2c(-c3ccccc3)nc3sccn23)cc1 (stereo not shown) [Compound 4f] | 40.22 ± 0.38 | 33.7 ± 0.84 | 0.288 ± 0.002 | 60.6 | 155 to 157 | 147 ± 4.57 | 49.7 ± 4.89 | 47.6 ± 8.97 |  |  |  |  |  |  |  |  |
| COc1ccc(N2C(=O)C(C)SC2c2c(-c3ccccc3)nc3sccn23)cc1 (stereo not shown) [Compound 4g, 3-(4-Methoxyphenyl)-5-methyl-2-(6-phenylimidazo[2,1-b]thiazol-5-yl) thiazolidin-4-one] | 70.1 ± 2.02 | 52.9 ± 1.65 | 0.291 ± 0.011 | 62.1 | 162 to 164 | 164 ± 4.69 | 46.5 ± 7.14 | 76.3 ± 5.66 |  |  |  |  |  |  |  |  |
| O=C1CSC(c2c(-c3ccccc3)nc3sccn23)N1c1ccc(Cl)cc1 (stereo not shown) [Compound 5a, 3-(4-Chlorophenyl)-2-(6-phenylimidazo[2,1-b]thiazol-5-yl) thiazolidin-4-one] | 42.7 ± 3.35 | 35.1 ± 1.25 | 0.323 ± 0.002 | 79.9 | 177 to 179 | 117 ± 5.69 | 30.1 ± 4.17 | 58.8 ± 3.14 |  | 76.24 | 0.163 ± 0.018 | 94.92 | 1.083 ± 0.238 | 5.75 ± 0.102 |  |  |
| O=C(O)Cc1ccccc1Nc1c(Cl)cccc1Cl [Diclofenac sodium, reference compound] |  |  |  |  |  |  |  |  |  | 80.32 |  |  |  |  | 38.8 |  |
| Cc1ccc(N2C(=O)CSC2c2c(-c3ccccc3)nc3sccn23)cc1 (stereo not shown) [Compound 5c] | 34.2 ± 2.82 | 35.8 ± 4.61 | 0.314 ± 0.003 | 79.9 | 153 to 155 | 109 ± 5.32 | 29.3 ± 4.61 | 60 ± 6.44 |  |  |  |  |  |  |  | 65.28 |
| CC1SC(c2c(-c3ccccc3)nc3sccn23)N(c2ccc(Cl)cc2Cl)C1=O (stereo not shown) [Compound 4d, 3-(2,4-Dichlorophenyl)-5-methyl-2-(6-phenylimidazo[2,1-b]thiazol-5-yl)thiazolidin-4-one] | 31.8 ± 1.1 | 35.8 ± 1.03 | 0.326 ± 0.002 | 82 | 151 to 153 | 181 ± 5.74 | 36 ± 1.89 | 49.5 ± 7.14 |  | 67.78 |  | 84.39 | 1.250 ± 0.281 | 6.16 ± 0.135 |  |  |
